Results on five molecules are retold here after publication PMC8622623, “Histamine H3 Receptor Ligands—KSK-59 and KSK-73—Reduce Body Weight Gain in a Rat Model of Excessive Eating” (Pharmaceuticals, 2021).

One series can be described thus: in vitro. The conditions noted are these: PAMPA, pH 7.4. On the procedure: The reference compounds, well-permeable caffeine and low-permeable norfloxacin were obtained from Sigma-Aldrich (St. Louis, MO, USA). Used for this study, pre-coated PAMPA Plate System Gentest™ was provided by Corning (Tewksbury, MA, USA). The system consisted of 96-well receiver filter plate pre-coated with structured layers of phospholipids and a donor microplate. The assay was performed as described previously. […] After 5 h of incubation at RT° the UPLC-MS spectrometry (Waters ACQUITY™ TQD system with the TQ Detector, Waters, Milford, MA, USA) method was used to estimate the quantity of compounds that penetrated from donor to acceptor wells. The permeability coefficients (Pe, cm/s) were calculated using the formulas provided by Corning.

A further series concerns laboratory animals. Set-up: method as in PMID 33261900. The conditions noted are these: laboratory animals ref 12; cited from earlier work.
In another series the test system is rat. The conditions noted are these: i.p., no reference given; cited from earlier work.
The next series relates to female Wistar rats. As to the kind of experiment: Visceral illness via kaolin intake (pica behavior). In kind it is in vivo. The conditions noted are these: single i.p., 24 h; vs vehicle control. On the procedure: The method was based on the works by Takeda et al. and Yamamoto et al. with minor modification. The experiment lasted for five days. In addition to free access to feed, animals had also free access to a white kaolin. For the first few days, the animals were accustomed to the presence of kaolin in their cages. […] Moreover, animals were weighed before the compounds administration and 24 h after.

In the next series the test system is mice fed high fat diet. Set-up: method as in PMID 15833055, PMID 15447739. The conditions noted are these: mice fed high fat diet ref 4, 16; cited from earlier work.

Structures are written as SMILES.

As for `Cn1c(=O)c2c(ncn2C)n(C)c1=O` [CFN, caffeine], the apparent permeability coefficient (Papp) at 5 h, 200 µM in the series “in vitro” was 12.2 ± 0.94 ×10⁻⁶ cm/s.
`N#Cc1ccc(-c2ccc(OCCCN3CCN(c4ccncc4)CC3)cc2)cc1` [KSK-94]: in the series on laboratory animals, the kcal intake entry was “reduced kcal intake”; the “plasma triglyceride and total cholesterol levels” value is “lowering plasma triglyceride and total cholesterol levels”; the weight gain result is reported as “strongly prevented weight gain”.
As for `CCn1cc(C(=O)O)c(=O)c2cc(F)c(N3CCNCC3)cc21` [NFX, norfloxacin], the apparent permeability (Papp) at 5 h, 200 µM in the series “in vitro” worked out at 0.056 ± 0.01 ×10⁻⁶ cm/s.
On to `O=S(=O)([O-])[O-].[Cu+2]` [CuSO4, reference compound], for which the LD50 in the series with rat is listed as 18 mg/kg. In addition, in the series on female Wistar rats, the “calorie intake (pica model)” value is reported as “reduced caloric intake” and the “water intake (pica model)” value is reported as “drank less water”.
Consider `CN(C)[C@@H]1CCN(CCCOc2ccc(-c3ccc(C#N)cc3)cc2)C1` [Compound A-331440], for which, in the series with mice fed high fat diet, the body weight entry is on record as “caused weight loss”, the insulin tolerance result is “normalized insulin tolerance” and the leptin levels entry is given as “lowered leptin levels”.
